According to article PMC5654414, “In vitro and in vivo comparative and competitive activity-based protein profiling of GH29 α-L-fucosidases” (Chemical Science, 2015):

Key:
[1] = system: retaining α-L-fucosidases; test: In vivo labeling of α-L-fucosidases in mice; set-up: species or system C57Bl/6J mice
Experimental: (§1) The ability of 1 to label α-L-fucosidase in living mice was investigated next. Four wild-type C57Bl/6J male mice were injected with 100 μL vehicle (PBS) or PBS containing 10, 100 or 1000 pmol 1. After two hours, the mice were anesthetized, perfused with PBS and then brain, spleen, liver and kidney tissues were isolated. Tissue homogenates were prepared and each lysate was labeled prior to gel electrophoresis with red-fluorescent cyclophellitol β-aziridine JJB75, which labels β-exoglucosidases as loading control (ESI Fig. S6 ^†). Furthermore, tissue homogenates of vehicle-treated animals were labeled with excess 1 to visualize the maximal α-L-fucosidase labeling achievable in each tissue.
(§2) The appropriate ethics committee for animal experiments approved all experimental procedures. Wild-type C57Bl/6J male mice were obtained from Harlan and fed a commercially available lab diet (RMH-B; Hope Farms). Four C57BL/6J mice were injected intraperitoneally with 100 μL sterile PBS (vehicle) or PBS containing 10, 100, or 1000 pmol of ABP 1 (about 0.2 μg kg^–1, 2 μg kg^–1, and 20 μg kg^–1, respectively). At 2 h post-administration, urine was collected and the mice were anesthetized with FFM mix (25/25/50 fentanylcitrate/midazalam/H2O), blood was collected and perfused with PBS at 3.0 mL min^–1. Then urine and organs were collected and directly frozen in liquid nitrogen. Homogenates were made in 25 mM potassium phosphate buffer, pH 6.5, supplemented with 0.1% (v/v) Triton X-100 and protease inhibitor cocktail (Roche). After determination of protein concentration (BCA kit, Pierce), 50 μg total protein was incubated with 100 nM red fluorescent JJB75 and analyzed by SDS-PAGE. As controls, matching tissue homogenates of vehicle-treated animals were concomitantly labeled with 1 μM ABP 1 and 100 nM JJB75 prior to SDS-PAGE.

[2] = molecular target: T1, retaining α-L-fucosidases (Mus musculus, UniProt Q99LJ1); test: In vivo labeling of α-L-fucosidases in mice; set-up: species or system C57Bl/6J mice; conditions: any of the administered doses (10, 100, 1000 pmol), 2 h
T1 construct: from tissue; host or cells: C57Bl/6J mouse spleen, liver, kidney, brain (in vivo)
T1 sequence (Q99LJ1 18-452): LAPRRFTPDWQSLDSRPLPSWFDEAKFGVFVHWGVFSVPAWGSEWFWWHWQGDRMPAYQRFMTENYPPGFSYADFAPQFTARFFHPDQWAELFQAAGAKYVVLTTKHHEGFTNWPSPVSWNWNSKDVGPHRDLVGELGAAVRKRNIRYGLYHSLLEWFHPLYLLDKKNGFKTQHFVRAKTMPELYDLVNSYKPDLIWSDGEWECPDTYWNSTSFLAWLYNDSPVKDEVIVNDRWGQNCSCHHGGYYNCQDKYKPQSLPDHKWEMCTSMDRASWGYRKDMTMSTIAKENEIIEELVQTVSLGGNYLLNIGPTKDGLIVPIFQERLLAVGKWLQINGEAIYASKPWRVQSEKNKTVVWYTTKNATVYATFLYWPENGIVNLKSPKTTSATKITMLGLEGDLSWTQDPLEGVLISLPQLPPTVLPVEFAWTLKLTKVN
Experimental: as §1, §2

[3] = molecular target: T2, FUCA1 (Homo sapiens, UniProt P04066); test: ABP pulldown from Gaucher spleen lysate and LC-MS/MS identification; type: binding; set-up: lysates of spleens from a healthy human individual and a patient suffering from Gaucher disease; from tissue; host or cells: human spleen (normal subject and type 1 Gaucher patient); conditions: 10 μM pre-incubation followed by 10 μM ABP 3
T2 sequence (P04066 32-466): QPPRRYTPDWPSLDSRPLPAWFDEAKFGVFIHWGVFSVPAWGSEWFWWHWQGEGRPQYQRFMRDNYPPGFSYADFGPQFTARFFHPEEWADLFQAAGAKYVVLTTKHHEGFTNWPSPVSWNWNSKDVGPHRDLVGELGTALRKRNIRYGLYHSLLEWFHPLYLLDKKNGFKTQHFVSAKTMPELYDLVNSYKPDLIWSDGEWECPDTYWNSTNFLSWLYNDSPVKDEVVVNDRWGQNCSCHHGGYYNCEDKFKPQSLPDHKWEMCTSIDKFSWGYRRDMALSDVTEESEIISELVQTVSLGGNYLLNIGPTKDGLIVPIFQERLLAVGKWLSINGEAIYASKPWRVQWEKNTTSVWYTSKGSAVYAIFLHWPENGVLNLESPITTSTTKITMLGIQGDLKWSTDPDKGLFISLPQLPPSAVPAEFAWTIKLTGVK
Experimental: To further determine the specificity of the developed ABPs, we have analyzed the ABP-labeled proteins in a complex tissue homogenate. For this purpose, we incubated Gaucher spleen lysate with biotinylated ABP 3 or with DMSO only (control) or competitive ABP 3-labeling by first incubating with fluorescent ABP 1. Glycosylated proteins were then enriched via ConA, followed by affinity purification with streptavidin coated paramagnetic beads. The identity of biotinylated and ABP 3-labeled proteins was determined by on-bead digestion with trypsin, peptide analysis by LC-MS/MS and matching against the human UniProt database, using the Mascot search engine as previously reported.[14] […]
Gaucher spleen lysate (1 g) was cut with a sterile scalpel, mixed with 4 mL 25 mM potassium phosphate buffer (pH 6.5, supplemented with 0.1% (v/v) Triton X-100 and protease inhibitor cocktail (Roche)) and sonicated three times for 10 seconds at 100% strength and kept on ice. […] Lysate was then centrifuged for 10 min at 10 000 g, supernatant collected carefully, protein concentration determined and […] total protein was then incubated with either 0.1% (v/v) DMSO, ABP 1 or ABP 3, or firstly with 10 μM ABP 1 followed by 10 μM of ABP 3, each step taking 30 min at 37 °C, in a total volume of 1 mL McIlvaine buffer, pH 4.5. […]

brain penetration ([1]; concluded from absent brain labeling): does not penetrate the brain
blocking of ABP 3 binding by pre-incubation [3]: completely blocked
Structure (SMILES): CC1=CC(C)=[N+]2C1=C(CCCCc1cn(CCCCCCCC(=O)N3[C@@H]4[C@@H](C)[C@@H](O)[C@@H](O)[C@H](O)[C@@H]43)nn1)c1c(C)cc(C)n1[B-]2(F)F [compound 1]
in vivo labeling of α-fucosidase in spleen, liver and kidney ([1]; injection of 1000 pmol, 2 h): substantial labeling
in vivo labeling of retaining α-L-fucosidases in spleen, liver and kidney ([1]; intraperitoneal, 10, 100 or 1000 pmol, 2 h): dose-dependent labeling
in vivo brain FUCA1 labeling [2]: no in vivo brain FUCA1 labeling was observed
